# Measurements: patent US10080365B2, “Use of strobilurin type compounds for combating phytopathogenic fungi resistant to Qo inhibitors” (BASF SE, priority 2011, dated 2018)
# Where two headings read alike, the source gives them in different places.
# How the values were obtained:
# [1] = system: Septoria tritici isolates containing the G143A in the cytochrome b gene; experiment: Glass house Trial 3: control of leaf blotch on wheat caused by two Septoria tritici isolates containing G143A; format: in vivo; conditions: % diseased leaf area after about 28 days
# Protocol: The spray solutions were prepared in several steps:
# The stock solution was prepared as follows: 1.26 ml of a 1:1 mixture of cyclohexanone and dimethylsulfoxide was added to 8.4 mg of active ingredient. Next, 40.74 ml of a mixture of water, acetone (10%), the emulsifier Wettol (0.1%) and the wetting agent Silwet (0.05%) was added. This stock solution was then further diluted with the described solvent-emulsifier-water mixture to the desired concentrations.
# Trial 3: Control of Leaf Blotch on Wheat Caused by Caused by Two Septoria tritici Isolates Containing the G143A in the Cytochrome b Gene for their Cytochrome Bc1 Complex
# Wheat plants were grown in pots. These plants were sprayed to run-off with an aqueous suspension, containing the desired concentration of active ingredient. The next day, the treated plants were inoculated with an aqueous suspension of Septoria tritici. After inoculation, the trial plants were covered with a lid and immediately transferred to a chamber with a relative humidity of about 83 to 85% and 19.5 to 20° C. After 4 days the lid was removed. Altogether, the trial plants were cultivated for about 28 days in that greenhouse chamber. The extent of fungal attack on the leaves was then visually assessed as % diseased leaf area.
# [2] = system: Septoria tritici (Qo-inhibitor sensitive, wild-type); experiment: Microtiter test, Septoria tritici Qo-inhibitor sensitive wild-type (Use Example 1); format: cell-based; conditions: turbidity at 620 nm, read-out: Sensitive Septoria tritici isolate (wild type) (S-IC50)
# Protocol: (§1) The active substances were formulated separately as a stock solution in dimethyl sulfoxide (DMSO) at a concentration of 10 000 ppm.
# (§2) Activity against the Septoria blotch pathogen caused by Septoria tritici in the microtiter test
# (§3) Fungal strains used: • a) Septoria tritici (Qo-inhibitor sensitive, wild-type) • b) Septoria tritici (Qo-inhibitor-resistant, G143A mutant)
# (§4) 100 ml 2% Malt extract in water at pH6.8 were inoculated with microspores from 2 week old cultures grown on 2% malt extract+2% agar in Petri dishes and incubated for 3 days on a rotary shaker at 24° C. und 150 rpm. The culture was harvested, glycerol was added (15% (v/v) and kept frozen at −20° C. in aliquots of 1 ml.
# (§5) 1 ml stock suspension was thawed and suspended into 800 ml of 2% malt extract in water at pH 6.8. Compounds were diluted from stock solution in (dimethylsulfoxide) DMSO in 10 steps. The compound solutions were diluted 1/5 with sterile deionized water before use. 5 μl of the compound solutions were transferred into empty microplates. The plates were then filled with 195 μl of the microspore suspension of each strain.
# (§6) The antifungal activity was determined by measuring the turbidity of a culture in 96-well microplates in the presence of test compounds. Fungal growth was measured by recording the optical density at 620 nm every 15 h for 150 h. The relative antifungal activity was calculated by comparison of the effect of the test compounds with the effect of a DMSO control and a standard fungicide.
# (§7) IC50-values (concentration of test compound resulting in 50% inhibition of fungal growth) were calculated from the resulting dose-response for each compound and strain. The initial concentration of the test compounds and the 10 steps of dilution (1:4 each) allowed IC50-values from 0.001 to 100 μmol/l (μM) to be assessed.
# [3] = system: Septoria tritici (Qo-inhibitor-resistant, G143A mutant); experiment: Microtiter test, Septoria tritici Qo-inhibitor-resistant G143A mutant (Use Example 1); format: cell-based; conditions: for IC50: read-out: Resistant Septoria tritici isolate (G143A mutation) (R-IC50)
# Protocol: as §1, §2, §3, §4, §5, §6, §7
# [4] = system: Septoria tritici; experiment: Field Trial 1: efficacy against Septoria tritici on winter wheat (Böhl-Iggelheim); format: in vivo, Septoria tritici on winter wheat (cv. Riband); conditions: 200 g a.i./ha; for Disease (%) 20 DAA: applied at GS 32 and 21 days later at GS 39, natural infection, 20 days after last treatment; for Disease (%) 33 DAA: applied at GS 32 and GS 39, 33 days after last treatment; for Disease (%) 46 DAA: applied at GS 32 and GS 39, 46 days after last treatment; for control of Qo inhibitor-resistant Septoria tritici isolates, in words: commercial dose level
# Protocol: (§8) Compound I-6 was used as 50 g/l EC formulation. Pyraclostrobin was used as commercial product HEADLINE.
# The trial was conducted under field conditions in Böhl-Iggelheim, Rhineland-palatinate, Germany. Seeds of winter wheat (cv. Riband) were planted and grown under standard conditions with adequate supply of water and nutrients. At growing stage GS 32 (Apr. 14, 2011), a first compound treatment (200 g a.i. per ha) was made with a water volume of 400 L/ha, which was repeated 21 days later at growing stage GS 39. No further fungicide treatments were applied. Infection with fungal pathogens (e.g. Septoria tritici) occurred naturally. The evaluation of the disease incidences for Septoria tritici 20, 33 and 46 days after the last treatment (DAA) are shown in table Ill. In the last row, the evaluation of the percentage of Qo inhibitor-resistant Septoria tritici isolates with the G143A mutation after the treatments is given.
# [5] = system: Septoria tritici; experiment: Field Trial 2: efficacy against Septoria tritici on winter wheat (Limburgerhof); format: in vivo, Septoria tritici on winter wheat (cv. Riband); conditions: 200 g a.i./ha; for Disease (%) 19 DAA: applied at GS 33 and 26 days later at GS 39, natural infection, 19 days after last treatment; for Disease (%) 34 DAA: applied at GS 33 and GS 39, 34 days after last treatment; for antifungal activity against Qo inhibitor-resistant Septoria tritici, in words: commercial dose level
# Protocol: as §8
# This trial was conducted under field conditions in Limburgerhof, Rhineland-Palatinate, Germany. Seeds of winter wheat (cv. Riband) were planted and grown under standard conditions with adequate supply of water and nutrients. At growing stage GS 33 (Apr. 8, 2011), a first compound treatment (200 g a.i per ha) was made with a water volume of 400 L/ha, which was repeated 26 days later at growing stage GS 39. No further fungicide treatments were applied. Infection with fungal pathogens (e.g. Septoria tritici) occurred naturally. The evaluation of the disease incidences for Septoria tritici 19 and 34 days after the last treatment (DAA) are shown in Table IV. In the last row, the evaluation of the percentage of Qo inhibitor-resistant Septoria tritici isolates with the G143A mutation after the treatments is given.
# [6] = Resistant Septoria tritici isolate 1 (G143A mutation), 12.5 ppm
# [7] = Resistant Septoria tritici isolate 1 (G143A mutation), 25 ppm
# [8] = Resistant Septoria tritici isolate 1 (G143A mutation), 50 ppm
# [9] = Resistant Septoria tritici isolate 1 (G143A mutation), 100 ppm
# [10] = Resistant Septoria tritici isolate 1 (G143A mutation), 200 ppm
# [11] = Resistant Septoria tritici isolate 2 (G143A mutation), 12.5 ppm
# [12] = Resistant Septoria tritici isolate 2 (G143A mutation), 25 ppm
# [13] = Resistant Septoria tritici isolate 2 (G143A mutation), 50 ppm
# [14] = Resistant Septoria tritici isolate 2 (G143A mutation), 100 ppm
# [15] = Resistant Septoria tritici isolate 2 (G143A mutation), 200 ppm
SMILES,"Disease level (%) [1, 6] [%]","Disease level (%) [1, 7] [%]","Disease level (%) [1, 8] [%]","Disease level (%) [1, 9] [%]","Disease level (%) [1, 10] [%]","Disease level (%) [1, 11] [%]","Disease level (%) [1, 12] [%]","Disease level (%) [1, 13] [%]","Disease level (%) [1, 14] [%]","Disease level (%) [1, 15] [%]",IC50 ([2]; Zymoseptoria tritici) [nM],IC50 ([3]; Zymoseptoria tritici) [µM],Resistance factor RF = R-IC50/S-IC50 ([3]; {}),Disease (%) 20 DAA [4] [%],Disease (%) 33 DAA [4] [%],Disease (%) 46 DAA [4] [%],"control of Qo inhibitor-resistant Septoria tritici isolates, in words [4]",Disease (%) 19 DAA [5] [%],Disease (%) 34 DAA [5] [%],"antifungal activity against Qo inhibitor-resistant Septoria tritici, in words [5]",other results
"CNC(=O)C(=N/OC)/C(C)=C\COc1ccn(-c2ccc(Cl)cc2)n1 [Compound I-6, (Z)-5-[1-(4-Chloro-phenyl)-1H-pyrazol-3-yloxy]-2-[(E)-methoxyimino]-3-methyl-pent-3-enic acid methyl amide]",50,10,3,3,1,20,15,3,3,0,340,8.3,24,1,6,36,capable to control,3,12,capable to reduce the infection,–
CNC(=O)C(=NOC)C(C)=CCOc1ccn(-c2ccc(F)cc2F)n1 [Compound I-11],100,90,30,3,1,70,50,30,5,1,–,–,–,–,–,–,–,–,–,–,–
CNC(=O)C(=NOC)C(C)=CCOc1ccn(-c2ccc(F)cc2Cl)n1 [Compound I-14],100,80,70,15,3,90,70,15,5,1,–,–,–,–,–,–,–,–,–,–,–
Cn1nnn(-c2ccccc2COc2ccn(-c3ccc(Cl)cc3)n2)c1=O [Compound I-211],80,60,10,3,1,30,10,5,1,0,–,–,–,–,–,–,–,–,–,–,"IC50 [2]: 440 nM; IC50 ([3]; microtiter test, Qo-inhibitor-resistant G143A mutant, turbidity at 620 nm): 1.1 µM; Resistance factor RF = R-IC50/S-IC50 ([3]; ratio of IC50 for G143A resistant isolate to IC50 for wild-type sensitive isolate): 2.6"
"COC(=O)N(OC)c1ccccc1COc1ccn(-c2ccc(Cl)cc2)n1 [Pyraclostrobin, reference compound]",100,100,100,90,30,60,60,40,25,15,1.2,3.4,2882,8,32,93,insufficient control level,5,28,only slightly above the untreated control,–
"CON=C(C(=O)OC)c1ccccc1CON=C(C)c1cccc(C(F)(F)F)c1 [Trifloxystrobin, reference compound]",100,100,90,90,90,80,70,70,70,60,520,> 100,–,–,–,–,–,–,–,–,–
